Test results from US20110217265A1, “Screening for Inhibitors of HCV Amphipathic Helix (AH) Function” (priority 2008, published 2011).

Assays:
[1] = test system: 2a HCV RNA replicon; experiment: 2a HCV RNA replicon assay (FL-J6/JFH-5'C19Rluc2AUbi, luciferase); assay type: cell-based, Hepatitis C Virus genotype 2a; conditions: Hepatitis C virus, read-out: 2a (%) Percent of virus activity remaining in the presence of the compound
Description: Plasmids. Bart79I, a high-efficiency subgenomic replicon of HCV (28), harbors the neomycin resistance gene (neo) and the HCV nonstructural proteins. The Bart-Luciferase plasmid, Bart79I-luc, was cloned from the Bart791 parent (29) and the pGL3-Basic parent (Promega). In brief, a NotI site was introduced after the 15th amino acid of Core in Bart791 using PCR mutagenesis. The plasmid pcDNA3.1-NS4B, which encodes the Con1 NS4B sequence and was used to study the protein stability of the wild type and mutant NS4Bs, was described previously. To introduce the M2 mutation into the 4BAH2 of plasmids encoding HCV replicons or NS4B, the nucleotide sequence GCG that encodes for alanine at NS4B amino acid position 51 was changed to GAG (encoding for glutamate) and the nucleotide sequence TGG that encodes for tryptophan at amino acid position 55 was changed to GAT (encoding for aspartate) through the use of Quick-ChangeTMXL site-directed mutagenesis kit (Stratagene, La Jolla, Calif.) as described by the manufacturer and confirmed by sequencing. FL-J6/JFH-5′C19Rluc2AUbi, which is a monocistronic, full-length HCV genome that expresses Renilla luciferase (Rluc) and was derived from the previously described infectious genotype 2a HCV genome J6/JFH1.
(§1) Antiviral Assays of Compounds. Subconfluent Huh7.5 cells were trypsinized and collected by centrifugation at 700 g for 5 min. The cells were then washed three times in ice-cold RNasefree PBS buffer (BioWhittaker) and resuspended at 1.5×10^7 cells·ml^−1 in PBS buffer. Wild-type FL-J6/JFH-5′C19Rluc2AUbi and Bart79I-luc RNAs for electroporation were generated by in vitro transcription of XbaI (FL-J6/JFH-5′C19Rluc2AUbi) and ScaI (Bart791-luc)-linearized DNA templates using the T7 MEGAscript kit (Ambion), followed by phenol-chloroform purification and DEPC water suspension, 5 μg of RNA were mixed with 400 μl of washed Huh7.5 cells in a 2-mm-gap cuvette (BTX) and immediately pulsed (0.82 kV (FL-J6/JFH-5′C19Rluc2AUbi) and 0.68 kV (Bart79I-luc), five […] pulses) with a BTX-830 electroporator. After 10 min recovery at 25° C., pulsed cells were diluted into 20 ml of pre-warmed growth medium. Cells from several electroporations were pooled to a common stock and seeded in 96-well plates (17,000-20,000 cells per well). After 24 hr, compounds were added to the cells and media changes were performed daily with fresh compounds. After 72 hr of treatment, cells were incubated for 2 hr at 37° C. in the presence of 10% Alamar Blue reagent (TREK Diagnostic Systems) to assess for cytotoxicity. Plates were then scanned and fluorescence was detected by using a FLEXstation II 384 (Molecular Devices). The signal was normalized relative to untreated samples. Viral RNA replication was determined using Renilla (FL-J6/JFH-5′C19Rluc2AUbi) or firefly (Bart791-luc) luciferase assays, according to the manufacturer's (Promega) directions. The same samples subjected to the viability assay described below were analyzed in this assay. According to the manufacturer protocol, cells were washed with PBS buffer and shaken at room temperature for 15 min in 20 μl of lysis buffer. Reporter assays were performed directly in the wells of the culture plates by injecting 100 μl of the assay substrate into each well. Luminescence was measured over 10 seconds with a 2-second delay using a Berthold LB 96 V luminometer. Signal was normalized relative to untreated samples or samples grown in the presence of the corresponding concentration of DMSO. Experiments were repeated three times, each time with 4 replicates.

[2] = test system: Huh7.5 cells; experiment: Alamar Blue cell viability assay; assay type: cell-based, human
Experimental: as §1, with “Plates were then scanned and fluorescence was detected by using a FLEXstation II 384 (Molecular Devices).” left out

SMILES	activity at 5 µM [1] [%]	activity at 10 µM [1] [%]	Cell Viability (%), alamar blue ([2]; 5 μM) [%]	Cell Viability (%), alamar blue ([2]; 10 μM) [%]
CC(C)CN(C)c1nc(N)c(C(=O)NCc2ccsc2)nc1Cl.Cl [ID 148, 3-amino-6-chloro-5-(isobutyl(methyl)amino)-N-(thiophen-3-ylmethyl)pyrazine-2-carboxamide hydrochloride]	69	53	99	90
CC(C)CN(C)c1nc(N)c(C(=O)NCc2nccs2)nc1Cl.Cl [ID 149, 3-amino-6-chloro-5-(isobutyl(methyl)amino)-N-(thiazol-2-ylmethyl)pyrazine-2-carboxamide hydrochloride]	68	50	>100	>100
CC(C)CN(C)c1nc(N)c(C(=O)NCc2cccs2)nc1Cl [ID 150, 3-amino-6-chloro-5-(isobutyl(methyl)amino)-N-(thiophen-2-ylmethyl)pyrazine-2-carboxamide 2,2,2-trifluoroacetate]	65	48	>100	77
CC(C)CN(C)c1nc(N)c(C(=O)Nc2ccon2)nc1Cl.Cl [ID 200, 3-amino-6-chloro-5-(isobutyl(methyl)amino)-N-(isoxazol-3-yl)pyrazine-2-carboxamide hydrochloride]	77	65	96	96
CC(C)CN(C)c1nc(N)c(C(=O)Nc2ccccn2)nc1Cl.Cl [ID 201, 3-amino-6-chloro-5-(isobutyl(methyl)amino)-N-(pyridin-2-yl)pyrazine-2-carboxamide hydrochloride]	74	48	>100	92
CC(C)CN(C)c1nc(N)c(C(=O)Nc2ccncc2)nc1Cl.Cl [ID 203, 3-amino-6-chloro-5-(isobutyl(methyl)amino)-N-(pyridin-4-yl)pyrazine-2-carboxamide hydrochloride]	68	59	92	90
CC(C)CN(C)c1nc(N)c(C(=O)NCc2ccccn2)nc1Cl.Cl [ID 204, 3-amino-6-chloro-5-(isobutyl(methyl)amino)-N-(pyridin-2-ylmethyl)pyrazine-2-carboxamide hydrochloride]	66	60	>100	99
CC(C)CN(C)c1nc(N)c(C(=O)Nc2nncs2)nc1Cl.Cl [ID 205, 3-amino-6-chloro-5-(isobutyl(methyl)amino)-N-(1,3,4-thiadiazol-2-yl)pyrazine-2-carboxamide hydrochloride]	42	17	88	67
Cc1ccncc1NC(=O)c1nc(Cl)c(N(C)CC(C)C)nc1N.Cl [ID 235, 3-amino-6-chloro-5-(isobutyl(methyl)amino)-N-(4-methylpyridin-3-yl)pyrazine-2-carboxamide hydrochloride]	48	22	84	68
Cc1cc(NC(=O)c2nc(Cl)c(N(C)CC(C)C)nc2N)no1.Cl [ID 236, 3-amino-6-chloro-5-(isobutyl(methyl)amino)-N-(5-methylisoxazol-3-yl)pyrazine-2-carboxamide hydrochloride]	92	51	96	78
Cc1cc(NC(=O)c2nc(Cl)c(N(C)CC(C)C)nc2N)cnc1Cl [ID 291, 3-amino-6-chloro-N-(6-chloro-5-methylpyridin-3-yl)-5-(isobutyl(methyl)amino)pyrazine-2-carboxamide bis(2,2,2-trifluoroacetate)]	59	21	79	53
COc1cc(C)c(NC(=O)c2nc(Cl)c(N(C)CC(C)C)nc2N)cn1 [ID 294, 3-amino-6-chloro-5-(isobutyl(methyl)amino)-N-(6-methoxy-4-methylpyridin-3-yl)pyrazine-2-carboxamide bis(2,2,2-trifluoroacetate)]	58	22	100	68
CC(C)CN(C)c1nc(N)c(C(=O)Nc2ccccc2)nc1Cl [ID 295, 3-amino-6-chloro-5-(isobutyl(methyl)amino)-N-phenylpyrazine-2-carboxamide]	65	47	>100	90
Cc1cncc(NC(=O)c2nc(Cl)c(N(C)CC(C)C)nc2N)c1 [ID 296, 3-amino-6-chloro-5-(isobutyl(methyl)amino)-N-(5-methylpyridin-3-yl)pyrazine-2-carboxamide bis(2,2,2-trifluoroacetate)]	52	18	100	76
Cc1cc(F)ncc1NC(=O)c1nc(Cl)c(N(C)CC(C)C)nc1N [ID 297, 3-amino-6-chloro-N-(6-fluoro-4-methylpyridin-3-yl)-5-(isobutyl(methyl)amino)pyrazine-2-carboxamide bis(2,2,2-trifluoroacetate)]	58	16	94	67
COC(=O)c1cccc(NC(=O)c2nc(Cl)c(N(C)CC(C)C)nc2N)c1.O=C(O)C(F)(F)F [ID 343, methyl 3-(3-amino-6-chloro-5-(isobutyl(methyl)amino)pyrazine-2-carboxamido)benzoate 2,2,2-trifluoroacetate]	65	38	98	93
